Measured values taken from patent US4748122A, “2,5-diketo-D-gluconic acid reductase” (Shionogi & Co., Ltd., priority 1983, dated 1988).

Columns and labels:
[1] = test system: 25DKG-Rase derived from Strain K-106; assay: Substrate specificity by product formation, enzyme from K-106; type: biochemical, Corynebacterium sp. No. K-106 (ATCC 31,088)
Procedure: (§1) The purified enzyme solution (10 μl) obtained above (3) was mixed with 25 μmoles of a substrate (Ca-25DKG or 5KF) and 3.0 ml of 0.01M TB (pH 7) containing 15 μmoles of NADPH and the mixture was allowed to react at 30° C. for 60 minutes. After the reaction, the reaction mixture was analyzed by paper chromatography (developing solvent; phenol:formic acid:water=75:4:25, chromogenic agent; AHF solution, prepared by dissolving 0.93 g of anilin and 1.66 g of phthalic acid in 100 ml of water-saturated n-butanol and heating at 105° C. for 2 minutes) and by gas chromatography (column; SE-52, carrier gas: Helium, sample; trimethylsilylated derivative). […] In Table 1, the results of quantitative determination of the products by gas chromatography are shown.
(§2) The measurements of the physico-chemical properties were conducted in a manner as described in Example 1-(4) (5).

25DKG-Rase [2] = biological target: T1, 25DKG-Rase (Corynebacterium sp. SHS752001, UniProt P15339); assay: Action, substrate specificity and Km of the purified 25DKG-Rase (general description); type: biochemical, genus Corynebacterium; settings: for specificities for substrates (reducing action): in the presence of NADPH
From the text: As shown, NADPH is used as a hydrogen donor in the above reaction. Reduced nicotinamide adenine dinucleotide (NADH) may also be used as the hydrogen donor in the above reaction but the reaction velocity in that case is lowered to one two hundred and fiftieth (1/250) or less of that in the reaction where NADPH is used.
The enzymatic activity is spectrophotometrically measured on the basis of the decrease in absorption at 340 nm which corresponds to the oxidation of NADPH as the result of the enzyme reaction at 30° C. in 0.1M Tris buffer (pH 7) containing 0.1 mM NADPH and 3.3 mM Ca-25DKG. One unit of the enzymatic activity is defined as that oxidizes 1 μmole of NADPH for one minute.

[3] = test system: 25DKG-Rase derived from Strain T-13; assay: Substrate specificity by product formation, enzyme from T-13; type: biochemical, Corynebacterium sp. No. T-13 (ATCC 31,089)
Procedure: as §1, §2

25DKG-Rase [4] = biological target: T2, 25DKG-Rase (Corynebacterium sp., UniProt P15339); assay: Spectrophotometric enzymatic activity (decrease in absorption at 340 nm), purified enzyme solution of Example 1; type: biochemical, Corynebacterium sp. No. 20A-77 mutant (FERM-BP 108); settings: NADPH, 0.1M TB pH 7, 30° C.
T2 construct: The enzyme is an intracellular enzyme extracted from the cells of the 2KLG producing strain; made in house; host or cells: natural producer Corynebacterium sp; No. 20A-77 mutant FERM-BP 108, enzyme purified from sonicated cells; not recombinant
T2 sequence (P15339 2-277 limits assumed): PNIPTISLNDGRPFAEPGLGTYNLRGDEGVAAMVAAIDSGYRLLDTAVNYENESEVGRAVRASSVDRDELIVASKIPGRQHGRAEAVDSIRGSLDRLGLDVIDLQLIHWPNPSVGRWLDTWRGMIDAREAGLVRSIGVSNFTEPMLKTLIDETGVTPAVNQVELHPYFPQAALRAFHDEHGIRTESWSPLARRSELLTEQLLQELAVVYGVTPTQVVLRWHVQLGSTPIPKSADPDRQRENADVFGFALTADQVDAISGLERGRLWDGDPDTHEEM

25DKG-Rase [5] = biological target: T1, 25DKG-Rase; assay: Inhibition, activation and stabilization of the enzyme; type: biochemical, genus Corynebacterium; settings: for activation of the enzyme: addition of Mg++ or Mn++; for stabilization of the enzyme: glycerol of a high concentration (30-50%) or sucrose (1M)
From the text: It is stabilized by glycerol of a high concentration (30-50%) or sucrose (1M).

[6] = test system: 25DKG-Rase derived from Strain T-13; assay: Enzymatic activity of 25DKG-Rase obtained from T-13 (Example 2); type: biochemical, Corynebacterium sp. No. T-13 (ATCC 31,089); settings: purified enzyme solution of T-13
Procedure: (§3) Two point nine (2.9) ml of 0.1M TB (pH 7) containing 0.3 μmoles of NADPH was placed in a quartz cubette having 1 cm optical length difference and added 1-5 μl of the enzyme solution obtained above (3) thereto. Then, to the mixture, each 0.1 ml of the various substrate solutions (0.1M) were added while being kept at 30° C. Reactivities of the enzyme on the respective substrates were determined, by means of successive measurement of the decrease in absorption at 340 nm, on the basis of the decrease for 1 minute.
as §2
(§4) Enzymatic activities of 25DKG-Rases obtained from K-106 and T-13 were measured at varying pH from 4 to 9 (substrate: Ca-25DKG, reaction temperature: 30° C.).
(§5) The enzymatic activities of 25DKG-Rases obtained from K-106 and T-13 were measured at varying temperature (pH 7.0, substrate: Ca-25DKG).

25DKG-Rase [7] = biological target: T2, 25DKG-Rase; type: biochemical, Corynebacterium sp. No. 20A-77 mutant (FERM-BP 108); settings: NADPH, 0.01M TB pH 7, 30° C., 60 minutes
[8] = test system: 25DKG-Rase derived from Strain K-106; assay: Enzymatic activity of 25DKG-Rase obtained from K-106 (Example 2); type: biochemical, Corynebacterium sp. No. K-106 (ATCC 31,088); settings: purified enzyme solution of K-106
Procedure: as §3, §2, §4, §5

T1 sequence (P15339 whole entry): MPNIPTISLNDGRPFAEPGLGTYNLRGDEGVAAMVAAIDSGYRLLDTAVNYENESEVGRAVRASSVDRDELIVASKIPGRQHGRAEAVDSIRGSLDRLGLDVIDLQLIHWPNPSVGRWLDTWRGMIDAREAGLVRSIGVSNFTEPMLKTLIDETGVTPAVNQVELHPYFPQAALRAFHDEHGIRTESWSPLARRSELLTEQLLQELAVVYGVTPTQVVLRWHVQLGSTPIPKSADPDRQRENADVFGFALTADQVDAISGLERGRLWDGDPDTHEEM

SMILES: O=C(O)C(=O)[C@@H](O)[C@H](O)[C@H](O)CO [2-keto-D-gluconic acid]
- product formed (substrate specificity) [1]: None was produced
- specificities for substrates (reducing action) (25DKG-Rase [2]): does not show any reducing action
- product formed (substrate specificity) [3]: None was produced
- reductive activity (in words) (25DKG-Rase [4]): does not show any reductive activity

SMILES: O=C(CO)[C@@H](O)[C@H](O)[C@@H](O)C(=O)O [5-keto-D-gluconic acid]
- product formed (substrate specificity) [1]: None was produced
- specificities for substrates (reducing action) (25DKG-Rase [2]): does not reduce
- product formed (substrate specificity) [3]: None was produced
- reductive activity (in words) (25DKG-Rase [4]): does not show any reductive activity

SMILES: NC(=O)C1=CN([C@@H]2O[C@H](COP(=O)(O)OP(=O)(O)OC[C@H]3O[C@@H](n4cnc5c(N)ncnc54)[C@H](O)[C@@H]3O)[C@@H](O)[C@H]2O)C=CC1 [NADH, Reduced nicotinamide adenine dinucleotide]
- reaction velocity with NADH as hydrogen donor relative to NADPH (25DKG-Rase [2]; NADH in place of NADPH): 1/250

SMILES: [Mn+2] [Mn^++]
- activation of the enzyme (25DKG-Rase [5]): No remarkable increase in activation

SMILES: OC[C@H]1O[C@@](CO)(O[C@H]2O[C@H](CO)[C@@H](O)[C@H](O)[C@H]2O)[C@@H](O)[C@@H]1O [sucrose]
- stabilization of the enzyme (25DKG-Rase [5]): stabilized

SMILES: O=C(O)C(=O)[C@@H](O)[C@H](O)[C@@H](O)CO [Na-2KLG]
- Activity of the purified enzyme solution (1 ml) (25DKG-Rase [4]): 0 units

SMILES: O=C(O)C(=O)O [oxalate]
- inhibition of the enzyme (25DKG-Rase [5]): inhibited

SMILES: O=C(CO)[C@@H](O)[C@H](O)[C@H](O)CO [D-fructose]
- product formed (substrate specificity) [1]: None was produced
- specificities for substrates (reducing action) (25DKG-Rase [2]): does not show any reducing action
- product formed (substrate specificity) [3]: None was produced
- Activity of the purified enzyme solution (1 ml) (25DKG-Rase [4]): 0 units
- reductive activity (in words) (25DKG-Rase [4]): does not show any reductive activity

SMILES: O=C(O)C(=O)[C@@H](O)[C@H](O)C(=O)CO [25DKG, 2,5-diketo-D-gluconic acid]
- Km [6]: 2.6 ± 1 mM
- product formed (paper and gas chromatography) (25DKG-Rase [7]): only 2KLG is produced
- Km [8]: 1.7 ± 1 mM
- 25DKG of the substrate reduced to 2KLG (25DKG-Rase [2]; 30° C. for 60-120 minutes): ≥ 90%
- specificities for substrates (reducing action) (25DKG-Rase [2]): shows specificities
- reductive activity (in words) (25DKG-Rase [4]): shows a high activity

SMILES: O=C(O)C(=O)[C@@H](O)[C@H](O)[C@H](O)CO [Ca-2-keto-D-gluconate]
- Activity of the purified enzyme solution (1 ml) (25DKG-Rase [4]): 0 units

SMILES: [Mg+2] [Mg^++]
- activation of the enzyme (25DKG-Rase [5]): No remarkable increase in activation

SMILES: O=CC(O)CO (centres unmarked) [glyceroaldehyde]
- inhibition of the enzyme (25DKG-Rase [5]): scarcely inhibited

SMILES: O=C(CO)[C@@H](O)[C@H](O)[C@@H](O)C(=O)O [K-5-keto-gluconate]
- Activity of the purified enzyme solution (1 ml) (25DKG-Rase [4]): 0 units

SMILES: OCC(O)CO [glycerol]
- stabilization of the enzyme (25DKG-Rase [5]): stabilized
